Results published in ChEMBL document CHEMBL1201862, “PubChem BioAssay data set” (2004).
Calls of active or inactive are those of the source. Rule as the data show it, for most assays here: actives have a measured EC50 and inactives only a lower limit.

Columns and labels:
[1] = molecular target: T1, RNA-binding protein pos-1 (Caenorhabditis elegans, UniProt G5EF15); assay: disruptors of C. elegans POS-1 RNA interaction – biochemical, fluorescence polarization, dose response (AID 1964);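 also: purified POS-1 fused to maltose binding protein made in E. coli; potency of compounds blocking POS-1 binding to fluorescent RNA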
T1 sequence (G5EF15 whole entry): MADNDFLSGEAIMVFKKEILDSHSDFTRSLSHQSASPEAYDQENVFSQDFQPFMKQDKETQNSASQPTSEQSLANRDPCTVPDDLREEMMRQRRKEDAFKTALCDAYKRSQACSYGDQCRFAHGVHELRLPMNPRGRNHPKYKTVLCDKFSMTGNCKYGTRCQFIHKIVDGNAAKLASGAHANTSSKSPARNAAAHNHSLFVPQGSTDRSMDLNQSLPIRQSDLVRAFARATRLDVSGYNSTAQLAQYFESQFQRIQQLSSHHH

[2] = molecular target: T2, Zinc finger protein mex-5 (Caenorhabditis elegans, UniProt Q9XUB2); assay: potency of MEX-5 RNA-binding blockers – biochemical, C. elegans, fluorescence polarization, dose response (AID 1960)
T2 sequence (Q9XUB2 whole entry): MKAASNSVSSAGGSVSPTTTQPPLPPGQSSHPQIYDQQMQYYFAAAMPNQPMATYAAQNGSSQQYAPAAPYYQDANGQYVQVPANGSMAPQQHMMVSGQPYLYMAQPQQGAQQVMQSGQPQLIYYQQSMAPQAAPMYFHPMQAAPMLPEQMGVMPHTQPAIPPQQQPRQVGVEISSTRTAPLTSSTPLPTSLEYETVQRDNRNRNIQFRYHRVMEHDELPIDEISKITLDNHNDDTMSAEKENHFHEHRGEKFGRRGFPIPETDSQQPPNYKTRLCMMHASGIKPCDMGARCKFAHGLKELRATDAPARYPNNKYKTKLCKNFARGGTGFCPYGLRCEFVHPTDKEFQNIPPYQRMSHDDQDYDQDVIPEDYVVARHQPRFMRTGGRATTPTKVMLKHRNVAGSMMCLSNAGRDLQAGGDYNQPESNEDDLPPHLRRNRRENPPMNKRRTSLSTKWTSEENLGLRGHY

[3] = molecular target: Luciferin 4-monooxygenase (Photinus pyralis, UniProt P08659); assay: inhibition of purified Photinus pyralis luciferase – biochemical, luminescence, dose response (AID 1891)
[4] = Luminescence Cell-Based Dose Confirmation HTS to Identify Inhibitors of Platelet Dense Granule Release. [Related pubchem assays: 1663 (Primary HTS), 1678 (Summary of Project)]; type: functional
Cytochrome P450 3A4 = Cytochrome P450 3A4 (Homo sapiens, UniProt P08684);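 also: CYP3A4 tested as one member of a cytochrome P450 panel screen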
[5] = molecular target: T3, Corticotropin-releasing factor receptor 2/Corticotropin-releasing factor-binding protein (Homo sapiens, UniProt P24387+Q13324); assay: activators of CRF receptor 2 with binding protein – uHTS hits, confirmation (AID 602473); type: functional; conditions: read-out: EC50_Mean
T3 sequence (Q13324 whole entry): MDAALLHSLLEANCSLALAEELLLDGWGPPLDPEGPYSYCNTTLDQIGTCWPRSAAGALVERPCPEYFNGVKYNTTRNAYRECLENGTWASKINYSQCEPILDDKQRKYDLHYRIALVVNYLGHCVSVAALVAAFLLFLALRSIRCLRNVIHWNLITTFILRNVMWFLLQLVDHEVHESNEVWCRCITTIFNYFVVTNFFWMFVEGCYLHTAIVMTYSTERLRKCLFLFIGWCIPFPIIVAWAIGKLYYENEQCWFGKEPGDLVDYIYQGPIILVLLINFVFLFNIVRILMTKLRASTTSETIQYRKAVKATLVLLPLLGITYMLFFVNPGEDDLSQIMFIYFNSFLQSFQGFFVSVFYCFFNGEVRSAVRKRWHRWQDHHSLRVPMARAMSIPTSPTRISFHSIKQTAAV
T3 sequence (P24387 whole entry): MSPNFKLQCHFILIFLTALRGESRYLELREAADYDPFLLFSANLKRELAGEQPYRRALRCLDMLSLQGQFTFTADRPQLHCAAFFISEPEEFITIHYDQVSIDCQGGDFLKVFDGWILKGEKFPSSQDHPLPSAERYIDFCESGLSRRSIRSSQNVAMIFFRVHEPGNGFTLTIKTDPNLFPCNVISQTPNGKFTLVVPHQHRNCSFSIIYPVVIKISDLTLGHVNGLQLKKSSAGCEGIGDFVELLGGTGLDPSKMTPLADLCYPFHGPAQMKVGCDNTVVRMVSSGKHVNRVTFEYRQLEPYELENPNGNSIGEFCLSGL

[6] = Trypanosoma cruzi growth suppression in host cells – NIH3T3 host cells, beta-gal luminescence, confirmation (AID 2044); type: functional, cell-based;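 also: intracellular parasites grown in NIH/3T3 mouse fibroblasts as host cells; luminescent beta-galactosidase reporter signal from transgenic T. cruzi replicating inside host cells; inhibitors lower the luminescence signal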
[7] = NIH3T3 cell viability loss – ATP luminescence, mouse fibroblasts, counter-screen, dose response (AID 2010); type: functional, cell-based;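 also: cells exposed to compound for about 90 hours before reading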
[8] = molecular target: FAD-linked sulfhydryl oxidase ALR (Homo sapiens, UniProt P55789); assay: ALR-catalysed DTT oxidation blockers – biochemical, H2O2 detection, luminescence, cherry-pick, dose response (AID 493248)
[9] = molecular target: T4, Rac GTPase-activating protein 1 (Homo sapiens, UniProt Q9H0H5); assay: blockers of MgcRacGAP-driven Rac1 GTP hydrolysis – biochemical, ADP Hunter fluorescence, primary and confirmatory, confirmation (AID 624330); type: functional
T4 sequence (Q9H0H5 whole entry): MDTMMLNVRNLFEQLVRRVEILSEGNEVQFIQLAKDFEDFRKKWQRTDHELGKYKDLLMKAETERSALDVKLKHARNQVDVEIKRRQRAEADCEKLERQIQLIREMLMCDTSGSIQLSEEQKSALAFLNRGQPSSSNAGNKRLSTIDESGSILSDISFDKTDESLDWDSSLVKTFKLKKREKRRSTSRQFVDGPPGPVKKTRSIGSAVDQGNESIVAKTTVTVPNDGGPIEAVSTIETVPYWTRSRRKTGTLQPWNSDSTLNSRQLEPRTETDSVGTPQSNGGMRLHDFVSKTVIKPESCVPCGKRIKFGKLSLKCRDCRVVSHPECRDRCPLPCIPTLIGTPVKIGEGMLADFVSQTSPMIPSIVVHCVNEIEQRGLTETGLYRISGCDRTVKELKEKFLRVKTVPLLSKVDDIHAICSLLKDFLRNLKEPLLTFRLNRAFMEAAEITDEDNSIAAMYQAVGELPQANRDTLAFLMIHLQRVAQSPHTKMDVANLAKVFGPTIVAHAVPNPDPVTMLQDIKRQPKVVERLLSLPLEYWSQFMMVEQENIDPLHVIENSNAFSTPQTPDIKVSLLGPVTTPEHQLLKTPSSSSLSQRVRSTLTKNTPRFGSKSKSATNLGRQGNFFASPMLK

[10] = luciferase reporter signal suppression in cells – H4 neuroglioma cells, luminescence, dose response (AID 1990); type: functional, cell-based
[11] = Luminescence Cell-Based Dose Response HTS to Identify Inhibitors of 5'UTR Stem-Loop Driven Prion Protein mRNA Translation in H4 Neuroglioblastoma Cells. [Related pubchem assays: 1827 (Project Summary), 1813 (Primary HTS)]; type: functional
[12] = alpha-synuclein stem-loop luciferase translation blockers – H4 neuroglioma cells, luminescence, confirmation (AID 1988); type: functional, cell-based
Cytochrome P450 2C9 = Cytochrome P450 2C9 (Homo sapiens, UniProt P11712)
[13] = Luminescence Cell-Based Dose Response HTS to Identify Activators of Luciferase Translation or Activity in H4 […] Cells. [Related pubchem assays: 1829 (Project Summary), 1814 (Primary HTS)]; type: functional
H4 = assay: Luminescence Cell-Based Dose Response HTS to Identify Activators of 5'UTR Stem-Loop Driven Prion Protein mRNA Translation in H4 Neuroglioblastoma Cells. [Related pubchem assays: 1829 (Project Summary), 1814 (Primary HTS)]; type: functional; conditions: Homo sapiens

Luciferin 4-monooxygenase, sequence (P08659 whole entry): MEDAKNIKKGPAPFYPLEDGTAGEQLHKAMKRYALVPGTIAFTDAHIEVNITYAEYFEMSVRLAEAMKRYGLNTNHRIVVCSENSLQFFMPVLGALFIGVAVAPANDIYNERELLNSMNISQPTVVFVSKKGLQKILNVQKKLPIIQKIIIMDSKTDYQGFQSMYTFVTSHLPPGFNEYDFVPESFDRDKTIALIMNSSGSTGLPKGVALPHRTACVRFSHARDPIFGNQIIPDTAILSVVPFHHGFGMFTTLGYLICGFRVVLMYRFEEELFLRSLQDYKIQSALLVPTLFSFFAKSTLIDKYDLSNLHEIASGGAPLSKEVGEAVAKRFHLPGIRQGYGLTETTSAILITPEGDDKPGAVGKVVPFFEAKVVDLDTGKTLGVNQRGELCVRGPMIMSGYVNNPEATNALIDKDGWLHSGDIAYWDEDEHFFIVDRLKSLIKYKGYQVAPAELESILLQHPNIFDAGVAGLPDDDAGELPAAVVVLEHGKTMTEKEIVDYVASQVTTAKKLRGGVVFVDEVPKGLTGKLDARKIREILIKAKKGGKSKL
FAD-linked sulfhydryl oxidase ALR, sequence (P55789 whole entry): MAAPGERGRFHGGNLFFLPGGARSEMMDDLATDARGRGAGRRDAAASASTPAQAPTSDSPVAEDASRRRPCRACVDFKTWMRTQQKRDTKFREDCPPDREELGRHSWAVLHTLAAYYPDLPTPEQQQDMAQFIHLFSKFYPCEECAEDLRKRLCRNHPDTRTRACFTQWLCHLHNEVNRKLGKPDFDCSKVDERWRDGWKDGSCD
Cytochrome P450 3A4, sequence (P08684 whole entry): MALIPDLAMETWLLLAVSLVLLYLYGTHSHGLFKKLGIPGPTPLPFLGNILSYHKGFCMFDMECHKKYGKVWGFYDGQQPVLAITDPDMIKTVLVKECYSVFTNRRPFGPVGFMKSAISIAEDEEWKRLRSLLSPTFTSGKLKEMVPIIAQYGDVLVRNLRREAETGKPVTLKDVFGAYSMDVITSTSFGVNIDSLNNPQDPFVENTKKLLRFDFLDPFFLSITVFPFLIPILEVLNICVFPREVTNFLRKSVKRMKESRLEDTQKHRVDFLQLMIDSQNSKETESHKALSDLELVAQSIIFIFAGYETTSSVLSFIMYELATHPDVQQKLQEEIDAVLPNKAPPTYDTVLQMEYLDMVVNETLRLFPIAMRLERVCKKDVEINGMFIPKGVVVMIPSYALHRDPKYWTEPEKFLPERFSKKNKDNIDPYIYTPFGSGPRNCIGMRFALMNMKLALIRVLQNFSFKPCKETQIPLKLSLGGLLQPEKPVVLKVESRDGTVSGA
Cytochrome P450 2C9, sequence (P11712 whole entry): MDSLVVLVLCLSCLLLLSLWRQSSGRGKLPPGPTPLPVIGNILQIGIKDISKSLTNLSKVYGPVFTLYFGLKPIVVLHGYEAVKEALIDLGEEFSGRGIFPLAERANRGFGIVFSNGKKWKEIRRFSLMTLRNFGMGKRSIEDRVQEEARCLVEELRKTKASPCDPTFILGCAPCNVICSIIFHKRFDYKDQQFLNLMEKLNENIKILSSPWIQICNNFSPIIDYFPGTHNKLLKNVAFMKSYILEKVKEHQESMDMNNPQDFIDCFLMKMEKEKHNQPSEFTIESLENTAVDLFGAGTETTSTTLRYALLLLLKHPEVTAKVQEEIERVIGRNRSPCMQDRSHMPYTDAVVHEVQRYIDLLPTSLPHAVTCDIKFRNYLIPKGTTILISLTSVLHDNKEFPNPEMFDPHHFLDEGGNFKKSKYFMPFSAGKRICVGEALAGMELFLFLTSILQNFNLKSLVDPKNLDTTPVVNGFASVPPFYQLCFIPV

COc1cccc(C2(O)CCN(CC(=O)Nc3nc(C)cs3)CC2)c1
EC50 [1]: > 300 µM (not active)
EC50 [2]: > 300 µM (not active)

CCCCC1=CC2=CC(=O)C(C)(OC(=O)c3cnc4ccccc4n3)C(=O)C2=CO1 (configuration not stated)
EC50 [1]: 19.9 µM (active)
EC50 [2]: 19 µM (active)

CCOC(=O)c1ccc(-n2c(CCC(=O)O)ccc2-c2ccccc2)cc1
EC50 [1]: > 300 µM (not active)
EC50 [2]: > 300 µM (not active)

CC(=O)NCCNc1ccc([N+](=O)[O-])cc1C#N
EC50 [1]: > 300 µM (not active)
EC50 [2]: > 300 µM (not active)

COCCNC(=O)/C(C#N)=C/c1ccc(O)cc1
EC50 [3]: 4.8 µM (active)
EC50 [4]: 1.62 µM (active)

Cc1c(Cl)ccc2sc(NC(=O)C3CC3)nc12
EC50 [3]: > 112 µM (not active)
EC50 [4]: > 112 µM (not active)

O=C(O)c1nc2nc(Cl)c(Cl)nc2[nH]1
AC50 (Cytochrome P450 3A4): 3.16 µM (inconclusive)

CC(=O)N1N=C2C3CCN(CC3)C2C1c1cccc2ccccc12 (configuration not stated)
EC50 [5]: > 53 µM (inactive)

COc1cc(/C=C(\C#N)C(=O)NCCc2ccccc2)cc(OC)c1O
EC50 [5]: > 53 µM (inactive)

COc1cc(C)c(N)cc1C(C)C
EC50 [6]: 16.9 µM (active)
EC50 [7]: > 60 µM (not active)
AC50 [8]: 0.027 µM (active)
IC50 [9]: 113 µM (active)

CCn1c2ccccc2c2cc(NC(=O)CSc3nnc(-c4cccc(Cl)c4)o3)ccc21
EC50 [3]: > 112 µM (not active)
EC50 [4]: > 112 µM (not active)

CNc1nc2c3ccccc3n(C(C)=O)c2s1
EC50 [3]: > 112 µM (not active)
EC50 [4]: > 112 µM (not active)
IC50 [9]: 184 µM (active)

CCN(CC)c1ccc(NC(=O)CN2CCN(c3nc(C)cc(C)n3)CC2)cc1
AC50 [8]: 1.03 µM (active)

CC1CCCCN1S(=O)(=O)c1ccc(S(=O)(=O)N(CC(=O)Nc2ccccc2)Cc2cccs2)cc1 (configuration not stated)
EC50 [3]: > 112 µM (not active)
EC50 [4]: > 112 µM (not active)
EC50 [6]: 1.7 µM (active)
EC50 [7]: > 60 µM (inconclusive)

Cc1nc2cc(-c3cccc(F)c3)nn2c(C)c1CCC(=O)N1CCN(c2ccccn2)CC1
EC50 [10]: 11.9 µM (active)
EC50 [11]: 14.1 µM (active)
EC50 [12]: 12.4 µM (active)

N#CC1=C(N)C(C#N)(C#N)C(c2cccnc2)C2CCCC=C12 (configuration not stated)
EC50 [1]: 22.2 µM (active)
EC50 [2]: 17.5 µM (active)

CN1CCC(NC(=O)Nc2cccc(C(F)(F)F)c2)CC1
EC50 [3]: > 112 µM (not active)
EC50 [4]: > 112 µM (not active)

COc1cc(OC)cc(C(=O)Nc2ccc(S(=O)(=O)Nc3cc(C)nc(C)n3)cc2)c1
AC50 [8]: 1.68 µM (active)

C[C@@H](Cc1ccccc1)Nc1ncnc2c1ncn2[C@@H]1O[C@@H](CO)[C@H](O)[C@@H]1O
AC50 (Cytochrome P450 3A4): 10 µM (inconclusive)

COC(=O)[C@H](N)Cc1ccc(Cl)cc1
AC50 (Cytochrome P450 3A4): 31.6 µM (inconclusive)

CC(=O)Nc1ccc2nc(NC(=O)c3cccs3)sc2c1
EC50 [3]: 2.26 µM (active)
EC50 [4]: 6.27 µM (active)

CC1CCN(C(=S)c2ccc(N(C)C)cc2)CC1
AC50 [8]: 0.915 µM (active)

CC(C)(C)Nc1nc(N2CCCC2)nc(N2CCCC2)n1
EC50 [10]: 16.7 µM (active)
EC50 [11]: 19.6 µM (active)
EC50 [12]: 16.7 µM (active)
AC50 (Cytochrome P450 2C9): 5.01 µM (inconclusive)

Cc1c(C(=O)N(C)C)c2cc(Cl)ccc2n1O
AC50 [8]: 0.722 µM (active)

N#CC(C#N)=Cc1ccc(-c2ccc(S(=O)(=O)NC(=N)N)cc2)o1
EC50 [1]: > 300 µM (not active)
EC50 [2]: 236 µM (active)

Cc1cc2c(cc(C(=O)O)n2C)s1
AC50 [8]: 30.9 µM (active)

Cc1onc(-c2c(F)cccc2Cl)c1C(=O)N1CCCc2ccccc21
EC50 [1]: > 300 µM (not active)
EC50 [2]: > 300 µM (not active)

O=C(c1ccc(Cl)s1)N1CCc2ccccc21
EC50 [13]: 0.124 µM (active)
EC50 (H4): 56.2 µM (inconclusive)

Cc1ccc(-n2nnnc2SCCNS(=O)(=O)c2ccccc2)cc1C
EC50 [10]: > 120 µM (not active)
EC50 [11]: 20.5 µM (active)
EC50 [12]: > 120 µM (not active)

CC(C)Oc1ccc(N2CC(C(=O)Nc3ccc(N4CCOCC4)cc3)CC2=O)cc1 (configuration not stated)
EC50 [3]: > 112 µM (not active)
EC50 [4]: > 112 µM (not active)

O=C(CN(c1ccc(Cl)cc1)S(=O)(=O)c1ccc(Cl)c([N+](=O)[O-])c1)NCCc1ccccc1
EC50 [10]: > 120 µM (not active)
EC50 [11]: 8.52 µM (active)
EC50 [12]: 9.06 µM (active)
EC50 [6]: 3.56 µM (active)
EC50 [7]: > 60 µM (not active)

O=CN/N=C/c1c(O)ccc2ccccc12
EC50 [1]: > 300 µM (not active)
EC50 [2]: 5.35 µM (active)

Cc1[nH]cnc1C(=O)N/N=C/c1c(Cl)cccc1Cl
EC50 [3]: 4.22 µM (active)
EC50 [4]: 1.54 µM (active)

C/C(=N\C1CCCC1)c1c(C)[nH]n(-c2nc3ccccc3s2)c1=O
EC50 [1]: > 300 µM (not active)
EC50 [2]: > 300 µM (not active)
AC50 [8]: 1.24 µM (active)

CC(=O)N(C)c1ccc(/N=N/c2c(C)[nH]n(C(N)=S)c2=O)cc1
EC50 [1]: > 300 µM (not active)
EC50 [2]: 24.2 µM (active)

CSc1ccc(/C=N/NC(=O)c2ccc(O)cc2)cc1
EC50 [3]: 1.57 µM (active)
EC50 [4]: 13.9 µM (active)

Oc1c(/C=N/c2ccccc2Cl)[nH]c2ccccc12
EC50 [1]: > 300 µM (not active)
EC50 [2]: > 300 µM (not active)
